For 27 compounds, IC50, Activity and inhibition results are on record in ChEMBL document CHEMBL1137250, “Novel 6-O-acylated vitamin C derivatives as hyaluronidase inhibitors with selectivity for bacterial lyases” (Bioorg Med Chem Lett, 2006).

Calls of active or inactive are those of the source. No cut-off for these calls is given here.

A short description of experiment [1]: Inhibition of Streptococcus agalactiae 4755 hyaluronidase at pH 5.0.
The nature of experiment [2]: (§1) Inhibition of bovine hyaluronidase at pH 5.0. More on the design: species or system Bos taurus.
The species named for experiment [3] is Bos taurus. The experiment is described as follows: Inhibition of bovine hyaluronidase up to 13 mM at pH 5.0.
Experiment [4] concerns Streptococcus agalactiae. The experiment is described as follows: Inhibition of Streptococcus agalactiae 4755 hyaluronidase at 2000 uM at pH 5.0.
The species entered for experiment [5] is Bos taurus. Description: Inhibition of bovine hyaluronidase up to 1.1 mM at pH 5.0.
In experiment [6] the test system is Streptococcus agalactiae. Description: Inhibition of Streptococcus agalactiae 4755 hyaluronidase at 1100 uM at pH 5.0.
Experiment [7] is filed under the species Bos taurus. The description is as §1.
The species entered for experiment [8] is Bos taurus. Description: Inhibition of bovine hyaluronidase up to 200 uM at pH 5.0.
Experiment [9] has as its system Streptococcus agalactiae. The experiment is described as follows: Inhibition of Streptococcus agalactiae 4755 hyaluronidase at 160 uM at pH 5.0.
The species named for experiment [10] is Bos taurus. Description: Inhibition of bovine hyaluronidase up to 100 mM at pH 5.0.
The nature of experiment [11]: Inhibition of Streptococcus pneumoniae hyaluronidase.
Experiment [12] has as its system Streptococcus agalactiae. Description: Inhibition of Streptococcus agalactiae 4755 hyaluronidase upto 200 uM at pH 5.0.
The species named for experiment [13] is Bos taurus. The experiment is described as follows: Inhibition of bovine hyaluronidase at 1430 uM.
Experiment [14] deals with Streptococcus agalactiae. Description: Inhibition of Streptococcus agalactiae 4755 hyaluronidase at 190 uM at pH 5.0.
The test system of experiment [15] is Streptococcus agalactiae. Description: Inhibition of Streptococcus agalactiae 4755 hyaluronidase upto 13 mM at pH 5.0.

A word on the IC50: it is the concentration needed to halve the response being measured. The low end stands for greater potency in that assay, the high end for weaker potency in that assay. In the case of `O=C(CCCCCOc1ccc(OCc2ccccc2)cc1)OC[C@H](O)[C@H]1OC(=O)C(O)=C1O`, the IC50 in experiment [1] was 76 µM; in experiment [2], 210 µM.
As usually defined, the inhibition is the relative decrease from the control value, in per cent. Regarding `O=C1O[C@H]([C@@H](O)CO)C2=C1OCCO2`, the result in [3] was inactive. For the same compound, the inhibition in experiment [4] was found to be 24%.
For the compound `CCCCCCCCCCCC(=O)OC[C@H](O)[C@H]1OC(=O)C(O)=C1O`, the IC50 came to 47 µM in [1] and 208 µM in experiment [2].
The like results for `CCCCCCCCCCCCCCCCCC(=O)OC[C@H](O)[C@H]1OC(=O)C(O)=C1O` [ASCORBYL STEARATE] were, in that order, 0.9 µM and 39 µM.
For `CC(C)(C)C(=O)OC[C@H](O)[C@H]1OC(=O)C(O)=C1O`, the result in experiment [5] was inactive. This compound came in with an inhibition in experiment [6] of 43%.
Consider `O=C(CCCCCCCCCCOc1ccccc1)OC[C@H](O)[C@H]1OC(=O)C(O)=C1O`, for which the results for the IC50 in experiment [1] and in experiment [2] were 31 µM and 105 µM, respectively.
`O=C(CCCCCOc1ccc(-c2ccccc2)cc1)OC[C@H](O)[C@H]1OC(=O)C(O)=C1O`: the IC50 in [1] amounted to 61 µM; in experiment [2], 188 µM.
`O=C(CCCCCOCc1ccccc1)OC[C@H](O)[C@H]1OC(=O)C(O)=C1O`: the IC50 in [1] stood at 437 µM. In addition, the outcome in experiment [7] was inactive.
For `O=C(CCCCCOCc1ccc(-c2ccccc2)cc1)OC[C@H](O)[C@H]1OC(=O)C(O)=C1O`, the IC50 was 102 µM in experiment [1] and 543 µM in experiment [2].
In turn, `CCCCCC(=O)OC[C@H](O)[C@H]1OC(=O)C(O)=C1O` had an IC50 in experiment [1] of 475 µM. Besides, the outcome in experiment [7] was inactive.
In the case of `CCCCCCCC(=O)OC[C@H](O)[C@H]1OC(=O)C(O)=C1O`, in [1], the IC50 was 772 µM. Further, in [7], the outcome was inactive.
Take `CCCCCCCCCCCCCCCC(=O)OC[C@H](O)[C@H]1OC(=O)C(OC)=C1OC`: the outcome in experiment [8] was inactive. Besides, the inhibition in experiment [9] was 5%.
With `O=C(CCCCCCCCCCOc1ccc(-c2ccccc2)cc1)OC[C@H](O)[C@H]1OC(=O)C(O)=C1O`, the IC50 was 7.5 µM in experiment [1] and 37 µM in [2].
In the case of `O=C1O[C@H]([C@@H](O)CO)C(O)=C1O` [ASCORBIC ACID], the IC50 was found to be 6100 µM in [1] and 5800 µM in [11]. The outcome in experiment [10] was inactive.
Take `CCc1ccc(OCCCCCC(=O)OC[C@H](O)[C@H]2OC(=O)C(O)=C2O)cc1`: in experiment [1], half-maximal inhibition (IC50) was put at 280 µM. The outcome in experiment [7] was inactive.
In the case of `CCCCCCCCCCCCCCCC(=O)OC[C@H](O)[C@H]1OC(=O)C(OCc2ccccc2)=C1OCc1ccccc1`, the outcome in [8] and in experiment [12] was inactive.
With `CCCCCCCCCCCCCCCC(=O)OC[C@H](O)[C@H]1OC(=O)C(O)=C1O` [ASCORBYL PALMITATE], the values for the IC50 in [1] and in experiment [2] were 4.2 µM and 57 µM, respectively.
For `CCCCCCCCCC(=O)OC[C@H](O)[C@H]1OC(=O)C(O)=C1O` the same measures were 102 µM and 1380 µM.
For `CCCCCCCCCCC(=O)OC[C@H](O)[C@H]1OC(=O)C(O)=C1O` the same measures were 72 µM and 580 µM.
Take `O=C1O[C@H]([C@@H](O)COC(=O)c2ccccc2)C(O)=C1O`: in experiment [1], it took 132 µM to reach half-maximal inhibition (IC50). The compound also had an inhibition in experiment [13] of 33%.
With `CCCCCCCCCCCCCCCC(=O)OC[C@H](O)[C@H]1OC(=O)C2=C1OCCO2`, the result in experiment [8] was inactive. For the same compound, the inhibition in [14] turned out to be 32%.
For `COC1=C(OC)[C@@H]([C@@H](O)CO)OC1=O`, the result in experiment [15] and in experiment [3] was inactive.
Consider `CCCCCCCCCCCCC(=O)OC[C@H](O)[C@H]1OC(=O)C(O)=C1O`, for which the IC50 in experiment [1] came out at 14.3 µM; in experiment [2] it was 96 µM.
The compound `O=C(CCCCCOc1ccccc1)OC[C@H](O)[C@H]1OC(=O)C(O)=C1O` showed an IC50 in [1] of 717 µM. Besides, the outcome in experiment [7] was inactive.
The compound `O=C1O[C@H]([C@@H](O)CO)C(OCc2ccccc2)=C1OCc1ccccc1` returned an IC50 in [1] of 355 µM. In addition, the outcome in experiment [3] was inactive.
On to `O=C(Cc1ccc(-c2ccccc2)cc1)OC[C@H](O)[C@H]1OC(=O)C(O)=C1O`, for which the IC50 stood at 358 µM in [1] and 2010 µM in experiment [2].
For `CCCCCCCCCCCCCC(=O)OC[C@H](O)[C@H]1OC(=O)C(O)=C1O` the same measures were 8.4 µM and 71 µM.
